Experimental findings from patent US8735431B2, “Active compound combinations having insecticidal properties” (priority 2003, dated 2014) are described below.

One series deals with Heliothis armigera. Kind of series: Heliothis armigera test (soybean shoots dipped). The class given is in vivo. The procedure:
(§1) To produce a suitable preparation of active compound, 1 part by weight of active compound is mixed with the stated amounts of solvent and emulsifier, and the concentrate is diluted with emulsifier-containing water to the desired concentration.
Soybean shoots (Glycine max) are treated by being dipped into the preparation of active compound of the desired concentration and are populated with caterpillars of the cotton bollworm (Heliothis armigera) while the leaves are still moist.
(§2) After the desired period of time, the kill in % is determined. 100% means that all caterpillars have been killed; 0% means that none of the caterpillars have been killed. The determined kill ratios are entered into Colby's formula (see page 39).

Series [1] has as its system Plutella xylostella, normally sensitive strain. In words: Plutella xylostella test (normally sensitive strain). In kind it is in vivo. The following applies: 20 ppm, 4 d. The procedure:
as §1
Cabbage leaves (Brassica oleracea) are treated by being dipped into the preparation of active compound of the desired concentration and are populated with caterpillars of the diamondback moth (Plutella xylostella, normally sensitive strain) while the leaves are still moist.
as §2

One may read the melting point as the temperature of the solid-liquid transition. The compound `Cc1cc(Cl)cc(C(=O)NC(C)(C)C)c1NC(=O)c1cc(Br)nn1-c1ncccc1Cl` registered a melting point of 159 to 161 °C.

In turn, `CC(C)(C)NC(=O)c1cc(Br)cc(Br)c1NC(=O)c1cc(C(F)(F)F)nn1-c1ncccc1Cl` yielded a melting point of 246 to 247 °C.

In the case of `CNC(=O)c1cc(Br)cc(Br)c1NC(=O)c1cc(Br)nn1-c1ncccc1Cl`, the melting point fell in the range of 166 to 168 °C.

`CC(C)(C)NC(=O)c1cc(Cl)cc(Cl)c1NC(=O)c1cc(Cl)nn1-c1ncccc1Cl` had a melting point of 172 to 173 °C.

On to `CC(C)NC(=O)c1cc(Cl)cc(Cl)c1NC(=O)c1cc(Br)nn1-c1ncccc1Cl`, for which the melting point lay within 188 to 190 °C.

Regarding `CCNC(=O)c1cc(I)cc(C)c1NC(=O)c1cc(Cl)nn1-c1ncccc1Cl`, the melting point was in the range of 196 to 197 °C.

The compound `Cc1cc(I)cc(C(=O)NC(C)(C)C)c1NC(=O)c1cc(C(F)(F)F)nn1-c1ncccc1Cl` had a melting point of 242 to 243 °C.

`CN(C)C(=O)c1cc(Br)cc(Br)c1NC(=O)c1cc(Br)nn1-c1ncccc1Cl` displayed a melting point of 189 to 190 °C.

On to `CCNC(=O)c1cc(Cl)cc(Cl)c1NC(=O)c1cc(Cl)nn1-c1ncccc1Cl`, for which the melting point was in the range of 206 to 208 °C.

As to `CNC(=O)c1cc(I)cc(C)c1NC(=O)c1cc(Cl)nn1-c1ncccc1Cl`, the melting point fell in the range of 233 to 234 °C.

`CCNC(=O)c1cc(I)cc(C)c1NC(=O)c1cc(C(F)(F)F)nn1-c1ncccc1Cl`: the melting point was 199 to 200 °C.

The compound `CC(C)NC(=O)c1cc(Br)cc(Br)c1NC(=O)c1cc(C(F)(F)F)nn1-c1ncccc1Cl` displayed a melting point of 192 to 193 °C.

Take `Cc1cc(Br)cc(C(=O)NC(C)(C)C)c1NC(=O)c1cc(C(F)(F)F)nn1-c1ncccc1Cl`: the melting point was in the range of 247 to 248 °C.

`CC(C)NC(=O)c1cc(Br)cc(Br)c1NC(=O)c1cc(Cl)nn1-c1ncccc1Cl` showed a melting point of 197 to 199 °C.

Consider `CCNC(=O)c1cc(Br)cc(Br)c1NC(=O)c1cc(Br)nn1-c1ncccc1Cl`, for which the melting point fell in the range of 196 to 197 °C.

The compound `CN(C)C(=O)c1cc(Br)cc(Br)c1NC(=O)c1cc(C(F)(F)F)nn1-c1ncccc1Cl` gave a melting point of 228 to 229 °C.

Regarding `CNC(=O)c1cc(Cl)cc(C)c1NC(=O)c1cc(Cl)nn1-c1ncccc1Cl`, the melting point was 225 to 226 °C.

With `CCNC(=O)c1cc(Cl)cc(Cl)c1NC(=O)c1cc(Br)nn1-c1ncccc1Cl`, the melting point is 214 to 215 °C.

`CNC(=O)c1cc(Cl)cc(Cl)c1NC(=O)c1cc(Cl)nn1-c1ncccc1Cl` had a melting point of 205 to 206 °C.

For `CC(C)NC(=O)c1cc(Cl)cc(Cl)c1NC(=O)c1cc(Cl)nn1-c1ncccc1Cl`, the melting point fell in the range of 197 to 199 °C.

As for `CCNC(=O)c1cc(Cl)cc(C)c1NC(=O)c1cc(C(F)(F)F)nn1-c1ncccc1Cl`, the melting point was in the range of 163 to 164 °C.

`CN(C)C(=O)c1cc(Cl)cc(Cl)c1NC(=O)c1cc(C(F)(F)F)nn1-c1ncccc1Cl` displayed a melting point of 225 to 227 °C.

In turn, `Cc1cc(I)cc(C(=O)NC(C)C)c1NC(=O)c1cc(C(F)(F)F)nn1-c1ncccc1Cl` showed a melting point of 188 to 189 °C.

As for `CCNC(=O)c1cc(Br)cc(C)c1NC(=O)c1cc(Cl)nn1-c1ncccc1Cl`, the melting point fell in the range of 192 to 194 °C.

Compound `CNC(=O)c1cc(I)cc(C)c1NC(=O)c1cc(Br)nn1-c1ncccc1Cl` registered a melting point of 229 to 230 °C.

For the compound `CN(C)C(=O)c1cc(Cl)cc(Cl)c1NC(=O)c1cc(Cl)nn1-c1ncccc1Cl`, the melting point is 231 to 232 °C.

In turn, `CNC(=O)c1cc(Cl)cc(Cl)c1NC(=O)c1cc(Br)nn1-c1ncccc1Cl` displayed a melting point of 245 to 246 °C.

With `CCNC(=O)c1cc(Cl)cc(C)c1NC(=O)c1cc(Cl)nn1-c1ncccc1Cl`, the melting point was 199 to 200 °C.

`CC(C)(C)NC(=O)c1cc(Cl)cc(Cl)c1NC(=O)c1cc(Br)nn1-c1ncccc1Cl` had a melting point of 179 to 180 °C.

Regarding `CNC(=O)c1cc(Br)cc(C)c1NC(=O)c1cc(Cl)nn1-c1ncccc1Cl`, the melting point is 140 to 141 °C.

`CCNC(=O)c1cc(Cl)cc(Cl)c1NC(=O)c1cc(C(F)(F)F)nn1-c1ncccc1Cl` returned a melting point of 201 to 202 °C.

In turn, `Cc1cc(I)cc(C(=O)NC(C)(C)C)c1NC(=O)c1cc(Cl)nn1-c1ncccc1Cl` returned a melting point of 228 to 229 °C.

In turn, `CNC(=O)c1cc(Cl)cc(Cl)c1NC(=O)c1cc(C(F)(F)F)nn1-c1ncccc1Cl` registered a melting point of 155 to 157 °C.

Compound `CNC(=O)c1cc(Cl)cc(C)c1NC(=O)c1cc(OCC(F)(F)F)nn1-c1ncccc1Cl` came in with a melting point of 207 to 208 °C.

`Cc1cc(Br)cc(C(=O)NC(C)C)c1NC(=O)c1cc(Cl)nn1-c1ncccc1Cl` gave a melting point of 152 to 153 °C.

`CN(C)C(=O)c1cc(Cl)cc(Cl)c1NC(=O)c1cc(Br)nn1-c1ncccc1Cl`: the melting point fell in the range of 216 to 218 °C.

The compound `CCNC(=O)c1cc(Br)cc(C)c1NC(=O)c1cc(Br)nn1-c1ncccc1Cl` yielded a melting point of 194 to 196 °C.

The compound `CNC(=O)c1cc(I)cc(C)c1NC(=O)c1cc(C(F)(F)F)nn1-c1ncccc1Cl` had a melting point of 199 to 200 °C.

`CNC(=O)c1cc(Cl)cc(Cl)c1NC(=O)c1cc(OCC(F)(F)F)nn1-c1ncccc1Cl` yielded a melting point of 192 to 195 °C.

Take `Cc1cc(I)cc(C(=O)NC(C)C)c1NC(=O)c1cc(Cl)nn1-c1ncccc1Cl`: the melting point was 189 to 190 °C.

As for `CC(C)NC(=O)c1cc(Cl)cc(Cl)c1NC(=O)c1cc(C(F)(F)F)nn1-c1ncccc1Cl`, the melting point was 200 to 201 °C.

Consider `Cc1cc(Br)cc(C(=O)NC(C)C)c1NC(=O)c1cc(C(F)(F)F)nn1-c1ncccc1Cl`, for which the melting point was in the range of 197 to 198 °C.

The compound `CCNC(=O)c1cc(Br)cc(C)c1NC(=O)c1cc(C(F)(F)F)nn1-c1ncccc1Cl` had a melting point of 192 to 193 °C.

As for `Cc1cc(Br)cc(C(=O)NC(C)(C)C)c1NC(=O)c1cc(Br)nn1-c1ncccc1Cl`, the melting point lay within 215 to 221 °C.

With `CC(C)(C)NC(=O)c1cc(Br)cc(Br)c1NC(=O)c1cc(Br)nn1-c1ncccc1Cl`, the melting point lay in the range of 194 to 196 °C.

`CCNC(=O)c1cc(Cl)cc(C)c1NC(=O)c1cc(Br)nn1-c1ncccc1Cl` displayed a melting point of 194 to 195 °C.

As for `CC(C)(C)NC(=O)c1cc(Cl)cc(Cl)c1NC(=O)c1cc(C(F)(F)F)nn1-c1ncccc1Cl`, the melting point was in the range of 170 to 172 °C.

As to `CNC(=O)c1cc(Br)cc(C)c1NC(=O)c1cc(Br)nn1-c1ncccc1Cl`, the melting point is 147 to 149 °C.

In the case of `CCNC(=O)c1cc(Br)cc(Br)c1NC(=O)c1cc(Cl)nn1-c1ncccc1Cl`, the melting point was in the range of 192 to 194 °C.

`Cc1cc(Cl)cc(C(=O)NC(C)C)c1NC(=O)c1cc(OCC(F)(F)F)nn1-c1ncccc1Cl` displayed a melting point of 217 to 218 °C.

As to `CCNC(=O)c1cc(Cl)cc(C)c1NC(=O)c1cc(OCC(F)(F)F)nn1-c1ncccc1Cl`, the melting point was in the range of 205 to 207 °C.

The compound `Cc1cc(Br)cc(C(=O)N(C)C)c1NC(=O)c1cc(C(F)(F)F)nn1-c1ncccc1Cl` displayed a melting point of 207 to 208 °C.

As for `CC(C)NC(=O)c1cc(Cl)cc(Cl)c1NC(=O)c1cc(OCC(F)(F)F)nn1-c1ncccc1Cl`, the melting point was in the range of 232 to 235 °C.

For `Cc1cc(Br)cc(C(=O)NC(C)C)c1NC(=O)c1cc(Br)nn1-c1ncccc1Cl`, the melting point lay within 185 to 187 °C.

`CNC(=O)c1cc(Br)cc(C)c1NC(=O)c1cc(C(F)(F)F)nn1-c1ncccc1Cl` returned a melting point of 222 to 223 °C.

As for `Cc1cc(I)cc(C(=O)NC(C)C)c1NC(=O)c1cc(Br)nn1-c1ncccc1Cl`, the melting point fell in the range of 191 to 192 °C.

Turning to `CC(C)(C)NC(=O)c1cc(Br)cc(Br)c1NC(=O)c1cc(Cl)nn1-c1ncccc1Cl`, the melting point lay in the range of 210 to 212 °C.

Regarding `CC(C)NC(=O)c1cc(Br)cc(Br)c1NC(=O)c1cc(Br)nn1-c1ncccc1Cl`, the melting point fell in the range of 162 to 163 °C.

Take `CN(C)C(=O)c1cc(Br)cc(Br)c1NC(=O)c1cc(Cl)nn1-c1ncccc1Cl`: the melting point was 153 to 155 °C.

With `Cc1cc(Cl)cc(C(=O)NC(C)(C)C)c1NC(=O)c1cc(C(F)(F)F)nn1-c1ncccc1Cl`, the melting point was 223 to 225 °C.

On to `CNC(=O)c1cc(Br)cc(Br)c1NC(=O)c1cc(Cl)nn1-c1ncccc1Cl`, for which the melting point is 188 to 190 °C.

The compound `Cc1cc(Cl)cc(C(=O)NC(C)(C)C)c1NC(=O)c1cc(Cl)nn1-c1ncccc1Cl` returned a melting point of 163 to 165 °C.

Turning to `CNC(=O)c1cc(Br)cc(Br)c1NC(=O)c1cc(C(F)(F)F)nn1-c1ncccc1Cl`, the melting point fell in the range of 162 to 163 °C.

Turning to `Cc1cc(Br)cc(C(=O)NC(C)(C)C)c1NC(=O)c1cc(Cl)nn1-c1ncccc1Cl`, the melting point fell in the range of 224 to 225 °C.

Take `O=C(NC(=O)c1ccccc1Cl)Nc1ccc(OC(F)(F)F)cc1` [(2-5) triflumuron, triflumuron, reference compound]: the “Kill rate in % after 6d found” value with Heliothis armigera (0.8 ppm, 6 d) stood at 0%. The “Kill rate in % after 4d found” value in series [1] amounted to 60%.

`CC(C)(C)NC(=O)c1cc(Br)cc(Cl)c1NC(=O)c1cc(C(F)(F)F)nn1-c1ncccc1Cl` yielded a melting point of 143 to 145 °C.

Regarding `CCNC(=O)c1cc(Br)cc(Br)c1NC(=O)c1cc(C(F)(F)F)nn1-c1ncccc1Cl`, the melting point is 188 to 189 °C.

On to `COc1cccc(C(=O)NN(C(=O)c2cc(C)cc(C)c2)C(C)(C)C)c1C` [(2-10) methoxyfenozide, methoxyfenozide, reference compound], for which, in the series on Heliothis armigera (4 ppm, 3 d), the “Kill rate in % after 3d found” value is given as 0%.
